Assays:
[1] = system: STZ-treated NOD/Scid-(IL-2Rγ-null) mice; assay: Multiple low-dose STZ model in immune-deficient NOD/Scid-(IL-2Rγ-null) mice; type: in vivo, mouse; conditions: multiple low-dose STZ (data not shown for si-eIF5A)
Experimental: To test the role of eIF5A in cytokine-mediated islet dysfunction, efforts were made to identify a mouse model of islet inflammation. The multiple low dose streptozotocin (STZ) model, in which mice are subjected to five daily intraperitoneal doses (at 55 mg/kg body weight) of STZ, is considered to provoke local islet inflammation and cytokine release, in part through the recruitment of CD11c+ dendritic cells that release pro-inflammatory cytokines in the area of STZ-induced cellular destruction (27 and 28).
As noted, low-dose STZ-induced islet dysfunction involves at least two mechanisms: an inflammatory mechanism that is dependent upon cytokine release from immune cells and a direct toxic mechanism on the islet itself. […] Next, islets from 3 C57BL/6J mice per group 24 h after the initial STZ treatment were isolated and pooled and their iNOS content determined by immunoblot. […]
Studies in vivo: Daily STZ injections to groups of 10 week-old C57BL/6J and NOD/Scid-(IL-2Rγ-null) mice proceeded as described previously (30) at a dose of 55 mg STZ per kg mouse weight for 5 days. […] Serum was analyzed using a Luminex system (Millipore) and a mouse cytokine/chemokines Panel 1 mutliplex kit (Millipore).

[2] = system: Nos2 mRNA; assay: Nos2 transcript levels in INS-1 cells (quantitative RT-PCR); type: cell-based, rat; conditions: 125 μM GC7, cytokines
Description: (§1) eIF5A1 and eIF5A2 are the only proteins known to contain the unique amino acid hypusine at position 50. Hypusine is formed as a posttranslational modification of residue Lys50 in a reaction requiring spermidine and catalyzed by the sequential actions of the enzymes deoxyhypusine synthase (DHS) and deoxyhypusine hydroxylase (DOHH) (Chen, K Y, and Liu, A Y. Biochemistry and function of hypusine formation on eukaryotic initiation factor 5A. Biol Signals. 1997; 6(3):105-109). […] To further investigate the mechanism of eIF5A-regulated translation of Nos2, studies were performed following overnight incubation of cells with mimosine (an inhibitor of DOHH) and GC7 (an inhibitor of DHS). […] Similar data using GC7 were obtained in primary mouse islets (data not shown) and in human islets (FIGS. 5F and 5G). […]
Quantitative RT-PCR: Five micrograms of total RNA from islets or INS-1 cells were reverse-transcribed as detailed previously (77). cDNA was subjected to quantitative PCR using SYBR Green-based technology and published primers for mouse Ins1/2 pre-mRNA (78) and QuantiTech® primers (Qiagen) for all other mouse genes. […] All samples were corrected for total input RNA as quantitated by an Experion® (Bio-Rad) bioanalyzer. […]

[3] = system: eIF5A-Hyp; assay: New hypusine formation (3H-spermidine incorporation) in INS-1 (832/13) cells; type: cell-based, rat; conditions: GC7 125 μM overnight
Description: as §1
Measurement of hvpusination: Approximately 100 islets or 1×10^6 INS-1 cells per condition were incubated with 1.5 μCi ^3H-spermidine (Perkin Elmer) in the presence of 1 mM aminoguanidine. […] Gels were visualized by fluorography, and bands were quantitated using Kodak Molecular Imaging Software v. […]

## 5′-AACGGAAUGACUUCCAGCUGA-3′ (siSTABLE modification, further chemistry not given here) [si-eIF5A]
[1]
  protection against glucose intolerance: did not protect against glucose intolerance

## NCCCCCCCN=C(N)N [GC7]
[2]
  Nos2 transcript levels: remained disproportionately elevated
[3]
  new hypusine formation in INS-1 (832/13): effectively inhibits new hypusine formation

— patent US20120196918A1, “PREVENTING ISLET INFLAMMATION AND DYSFUNCTION AND MAINTAINING PROPER GLUCOSE LEVELS BY CONTROLLING eIF5A AND ITS HYPUSINATION” (priority 2009, published 2012)
